According to publication PMC8699473, “An Easily Expandable Multi-Drug LC-MS Assay for the Simultaneous Quantification of 57 Oral Antitumor Drugs in Human Plasma” (Cancers, 2021):

Experiment: Long-term stability in spiked pooled human plasma

SMILES	Long-term stability, 1 month, -20°C Accuracy [%] (validation standard 2xLLOV)	Long-term stability, 1 month, -80°C Accuracy [%] (validation standard 2xLLOV)	Long-term stability, 2 month, -80°C Accuracy [%] (validation standard 2xLLOV)	Long-term stability, 3 month, -20°C Accuracy [%] (validation standard 2xLLOV)	Long-term stability, 3 month, -80°C Accuracy [%] (validation standard 2xLLOV)	Long-term stability, 6 weeks, 4°C, without daylight Accuracy [%] (validation standard 2xLLOV)	Long-term stability, 1 month, -20°C Accuracy [%] (validation standard LLOV)	Long-term stability, 1 month, -80°C Accuracy [%] (validation standard LLOV)	Long-term stability, 2 month, -20°C Accuracy [%] (validation standard LLOV)	Long-term stability, 2 month, -80°C Accuracy [%] (validation standard LLOV)	Long-term stability, 3 month, -20°C Accuracy [%] (validation standard LLOV)	Long-term stability, 3 month, -80°C Accuracy [%] (validation standard LLOV)	Long-term stability, 6 weeks, 4°C, without daylight Accuracy [%] (validation standard LLOV)	Long-term stability, 1 month, -20°C Accuracy [%] (validation standard MOV)	Long-term stability, 1 month, -80°C Accuracy [%] (validation standard MOV)	Long-term stability, 2 month, -20°C Accuracy [%] (validation standard MOV)	Long-term stability, 2 month, -80°C Accuracy [%] (validation standard MOV)	Long-term stability, 3 month, -20°C Accuracy [%] (validation standard MOV)	Long-term stability, 3 month, -80°C Accuracy [%] (validation standard MOV)	Long-term stability, 6 weeks, 4°C, without daylight Accuracy [%] (validation standard MOV)	also measured
CS(=O)(=O)c1ccc(C(=O)Nc2ccc(Cl)c(-c3ccccn3)c2)c(Cl)c1 [Vismodegib]	105.4%	99.5%	104.3%	100.1%	99.6%	107.5%	92.5%	88.6%	94.1%	96.9%	84.3%	84.4%	96.6%	97.8%	97.9%	103.0%	103.7%	101.3%	100.9%	109.8%	Long-term stability, 2 month, -20°C Accuracy [%] (validation standard 2xLLOV): 106.5%; Long-term stability, 1 month, -20°C Accuracy [%] (validation standard ULOV): 90.5%; Long-term stability, 1 month, -80°C Accuracy [%] (validation standard ULOV): 87.8%; Long-term stability, 2 month, -20°C Accuracy [%] (validation standard ULOV): 94.5%; Long-term stability, 2 month, -80°C Accuracy [%] (validation standard ULOV): 95.1%; Long-term stability, 3 month, -20°C Accuracy [%] (validation standard ULOV): 94.9%; Long-term stability, 3 month, -80°C Accuracy [%] (validation standard ULOV): 93.4%; Long-term stability, 6 weeks, 4°C, without daylight Accuracy [%] (validation standard ULOV): 96.5%
O=C(Nc1cnn2ccc(N3CCC[C@@H]3c3cc(F)ccc3F)nc12)N1CC[C@H](O)C1 [Larotrectinib]	97.9%	92.9%	104.7%	100.8%	98.8%	106.7%	85.6%	87.5%	103.5%	102.1%	96.4%	94.2%	115.2%	96.7%	97.2%	99.1%	103.2%	96.2%	91.1%	105.2%	Long-term stability, 2 month, -20°C Accuracy [%] (validation standard 2xLLOV): 103.6%; Long-term stability, 1 month, -20°C Accuracy [%] (validation standard ULOV): 95.0%; Long-term stability, 1 month, -80°C Accuracy [%] (validation standard ULOV): 95.5%; Long-term stability, 2 month, -20°C Accuracy [%] (validation standard ULOV): 102.5%; Long-term stability, 2 month, -80°C Accuracy [%] (validation standard ULOV): 104.6%; Long-term stability, 3 month, -20°C Accuracy [%] (validation standard ULOV): 97.8%; Long-term stability, 3 month, -80°C Accuracy [%] (validation standard ULOV): 95.6%; Long-term stability, 6 weeks, 4°C, without daylight Accuracy [%] (validation standard ULOV): 98.0%
O=C1CN2Cc3c(ccc(Cl)c3Cl)N=C2N1 [Anagrelide]	99.8%	105.6%	118.5%	110.2%	114.9%	74.6%	103.9%	121.5%	128.7%	141.5%	101.8%	118.8%	33.5%	95.0%	97.0%	101.3%	98.7%	95.7%	95.1%	103.7%	Long-term stability, 2 month, -20°C Accuracy [%] (validation standard 2xLLOV): 121.4%; Long-term stability, 1 month, -20°C Accuracy [%] (validation standard ULOV): 95.4%; Long-term stability, 1 month, -80°C Accuracy [%] (validation standard ULOV): 90.8%; Long-term stability, 2 month, -20°C Accuracy [%] (validation standard ULOV): 94.5%; Long-term stability, 2 month, -80°C Accuracy [%] (validation standard ULOV): 99.2%; Long-term stability, 3 month, -20°C Accuracy [%] (validation standard ULOV): 94.9%; Long-term stability, 3 month, -80°C Accuracy [%] (validation standard ULOV): 94.7%; Long-term stability, 6 weeks, 4°C, without daylight Accuracy [%] (validation standard ULOV): 97.1%
COc1cc2nccc(Oc3ccc(NC(=O)C4(C(=O)Nc5ccc(F)cc5)CC4)cc3)c2cc1OC [Cabozantinib]	98.4%	92.5%	100.3%	92.5%	94.6%	96.8%	91.9%	89.4%	97.7%	100.2%	90.4%	91.8%	94.1%	97.7%	97.3%	101.6%	102.9%	100.0%	98.9%	108.5%	Long-term stability, 1 month, -20°C Accuracy [%] (validation standard ULOV): 95.7%; Long-term stability, 1 month, -80°C Accuracy [%] (validation standard ULOV): 93.1%; Long-term stability, 2 month, -20°C Accuracy [%] (validation standard ULOV): 99.6%; Long-term stability, 2 month, -80°C Accuracy [%] (validation standard ULOV): 100.3%; Long-term stability, 3 month, -20°C Accuracy [%] (validation standard ULOV): 96.3%; Long-term stability, 3 month, -80°C Accuracy [%] (validation standard ULOV): 93.1%; Long-term stability, 6 weeks, 4°C, without daylight Accuracy [%] (validation standard ULOV): 101.8%
C#Cc1cccc(Nc2ncnc3cc(OCCOC)c(OCCOC)cc23)c1 [Erlotinib]	102.3%	98.1%	105.9%	106.0%	105.8%	95.9%	113.5%	108.0%	113.2%	114.8%	111.5%	114.1%	107.0%	97.4%	97.0%	102.2%	101.3%	102.2%	102.8%	111.0%	Long-term stability, 2 month, -20°C Accuracy [%] (validation standard 2xLLOV): 106.4%; Long-term stability, 1 month, -20°C Accuracy [%] (validation standard ULOV): 99.6%; Long-term stability, 1 month, -80°C Accuracy [%] (validation standard ULOV): 97.8%; Long-term stability, 2 month, -80°C Accuracy [%] (validation standard ULOV): 104.4%; Long-term stability, 3 month, -20°C Accuracy [%] (validation standard ULOV): 101.8%; Long-term stability, 3 month, -80°C Accuracy [%] (validation standard ULOV): 104.4%; Long-term stability, 6 weeks, 4°C, without daylight Accuracy [%] (validation standard ULOV): 103.7%
C[C@]12CC[C@H](O)CC1=CC[C@@H]1[C@@H]2CC[C@]2(C)C(c3cccnc3)=CC[C@@H]12 [Abiraterone]	96.2%	93.5%	100.1%	97.2%	97.9%	101.6%	96.5%	93.2%	97.0%	105.8%	101.7%	106.0%	110.7%	95.8%	93.5%	101.2%	102.9%	101.8%	100.6%	106.4%	Long-term stability, 2 month, -20°C Accuracy [%] (validation standard 2xLLOV): 101.0%; Long-term stability, 1 month, -20°C Accuracy [%] (validation standard ULOV): 98.3%; Long-term stability, 1 month, -80°C Accuracy [%] (validation standard ULOV): 93.2%; Long-term stability, 2 month, -20°C Accuracy [%] (validation standard ULOV): 102.5%; Long-term stability, 2 month, -80°C Accuracy [%] (validation standard ULOV): 103.2%; Long-term stability, 3 month, -20°C Accuracy [%] (validation standard ULOV): 99.7%; Long-term stability, 3 month, -80°C Accuracy [%] (validation standard ULOV): 100.6%; Long-term stability, 6 weeks, 4°C, without daylight Accuracy [%] (validation standard ULOV): 102.8%
